Laboratory results from patent EP2243478A1, “PHARMACEUTICAL COMPOSITION COMBINING AN ANTIARTHRITIC AGENT AND AN INTERLEUKIN-1 INHIBITING AGENT, WHICH CAN BE USED TO CONTROL AND TREAT OSTEOARTHRITIS AND RELATED DISEASES” (World Trade Import-Export, WTIE A.G., priority 2007, dated 2009).

Experiments:
pain = conditions: dose from 2 to 4 gr/day; cited from earlier work
[1] = cited from earlier work
[2] = in vivo; cited from earlier work
patients with hip OA = experiment: comparative clinical study of Diacerein, Chondroitin and the combination Diacerein/Chondroitin, 6 month follow-up; assay type: in vivo
Method: A comparative clinical study in patients with hip OA was carried out with a 6 month term for follow-up. The study compared the efficacy of single Diacerein administration, single chondroitin and a combination of Diacerein/Chondroitin. The study included 120 patients which were divided in 3 treatment groups: • Groups 1: received Diacerein 50 mg administration twice a day. • Group 2: received Chondroitin 600 mg administration twice a day. • Group 3 : received Diacerein 50 mg /Chondroitin 600 mg administration twice a day.
Patients fulfilled with the inclusion criteria from the American Rheumatology Academy. Inclusion criteria were: • Symptomatic disease presence, defined as daily hip pain at least during the last two months. • A functional pain Lequesne index at least of 3 points. • Radiographic criteria were a joint space between 1 and 3 mm (without exceeding 3 mm) or less than 0.5 mm qf contralateral hip.
Joint hip space was measured through a prior pelvic radiography reading center, using a graded 0.1 mm magnification crystal. Start and end of treatment was radiographically assessed comparing the affected vs contralateral hip.
Laboratory analyses were carried out at the beginning of the study and on 6 months of treatment, assessing liver and kidney performance.

[3] = cited from earlier work; remark: listed apart in the source

Structure (SMILES): CC(=O)Nc1ccc(O)cc1 [Paracetamol]
- controlling pain in patients (pain): 40 % of patients

Structure (SMILES): O=C(O)c1cc(O)c2c(c1)C(=O)c1cccc(O)c1C2=O [Rein, rein]
- bound to plasma proteins [1]: 99%

Structure (SMILES): CC(=O)Oc1cccc2c1C(=O)c1c(OC(C)=O)cc(C(=O)O)cc1C2=O [Diacerein]
- clearance half-life in plasma [2]: 5 to 7 h
- Patient percentage with radiographic progression (joint space loss at least of 0.5 mm) (patients with hip OA; Data from first laboratory analysis, P= 0.035): 51.6%
- Patient percentage with radiographic progression (joint space loss at least of 0.5 mm) (patients with hip OA; Data upon 6 month treatment completion, P= 0.006): 46.7%
- patients cancelled the treatment (because of inefficacy) (patients with hip OA; after two months of treatment (time printed for Group 1), forty patients per group, twice a day oral): 6 patients
- joint space, Average ± SD (patients with hip OA; at 6 months of treatment, hip): 0.17 ± 0.24 mm/6 months
- slow action start, not significant until ([3]; after treatment): 4 weeks
- effect is maintained after having cancelled the treatment ([3]; in vivo): ≥ 2 months
